Test results from article PMC11609934, “Exploration and characterization of the antimalarial activity of cyclopropyl carboxamides that target the mitochondrial protein, cytochrome b” (European Journal of Medicinal Chemistry, 2024).
Where two headings read alike, the source gives them in different places.

Legend:
Pf SB1-A6 strain = experiment: Asexual stage assay, SB1-A6 strain; assay type: cell-based; conditions: Plasmodium falciparum, 72 h, read-out: SB1-A6 EC50 (SD)
Procedure: (§1) DHODH is essential for the function of the mitochondria ETC and pyrimidine biosynthesis. Compounds that inhibit cyt b typically have reduced activity against parasite strains with increased DHODH levels. To support evidence that the cyclopropyl carboxamide series impacts the mitochondrial ETC, selected analogs were evaluated against both the SB1-A6 strain that has a 2-fold amplification and a C276F SNP in PfDHODH [24] and a Dd2 strain that expresses Saccharomyces cerevisiae DHODH (ScDHODH). ScDHODH has low sequence homology to PfDHODH and is ubiquinone-independent in that it uses fumarate instead of mitochondrial coenzyme Q as an electron acceptor and therefore compounds that inhibit the Plasmodium mitochondrial ETC have reduced activity against the ScDHODH parasite strain.
(§2) Cyt b Resistant and ScDHODH Asexual Stage Assays. These assays were conducted as previously described. Briefly, asexual parasite strains indicated in Table 12 were incubated with compound in a dose response format for 72 h. Parasitemia was determined using SYBR-green fluorescence measured by flow cytometry (Thermo Fisher Attune). EC50 values were determined as described for the LDH assay.

[1] = system: Pf Dd2 expressing ScDHODH; experiment: ScDHODH asexual stage assay; assay type: cell-based; conditions: Plasmodium falciparum, DD2, 72 h, read-out: Dd2 ScDHODH EC50 (SD)
Procedure: as §1, §2

[2] = system: P. falciparum 3D7 parasites; experiment: P. falciparum 3D7 asexual stage LDH assay (72 h); assay type: cell-based, Plasmodium falciparum; conditions: Plasmodium falciparum, read-out: Pf 3D7 EC50 (SD)
How it was run: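 Asexual P. falciparum 3D7 parasites were grown for 72 h over a 10-point, 3-fold series starting at 1 μM in 0.1% DMSO, with 100 nM chloroquine as negative growth control. After freeze-thaw, parasite LDH was read at 650 nm, and EC50 came from a variable-slope sigmoidal fit.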

[3] = Human liver microsome stability; assay type: in vitro ADME; conditions: pooled human liver microsomes
Procedure: Human Liver Microsome Stability. A solution of the test compounds in phosphate buffer solution (1 μM) was incubated in pooled human liver microsomes (0.5 mg/mL) for 0, 5, 20, 30, 45 and 60 min at 37 °C in the presence and absence of NADPH regeneration system. The reaction was terminated with the addition of ice-cold acetonitrile containing system suitability standard at designated time points. […] The experiment was carried out in duplicate. Verapamil, diltiazem, phenacetin, and imipramine were used as reference standards.

[4] = eLogD (shake-flask, pH 7.4); assay type: physicochemical; conditions: 1-octanol/phosphate buffered saline (1:1, v/v), Shake-flask method
Procedure: eLogD. The LogD (pH 7.4) assay was performed using a miniaturized shake flask method. A solution of a pre-saturated mixture of 1-octanol and phosphate buffered saline (PBS) (1:1, v/v) and the test compound (75 μM) was incubated at 25 °C with constant shaking (850 rpm) for 2 h. After incubation the organic and aqueous phases were separated, and samples of each phase transferred to plate for dilution. The organic phase was diluted to 1000-fold and the aqueous phase was diluted 20-fold. The samples were quantitated using LC-MS/MS. The experiment was carried out in duplicate. Propranolol, amitriptyline, and midazolam were used as reference standards.

Rat hepatocyte stability = assay type: in vitro ADME; conditions: pooled rat hepatocytes
Procedure: Rat Hepatocyte Stability. A solution of the test compound in Krebs-Henseliet buffer solution (1 μM) was incubated in pooled rat hepatocytes (1 × 10^6 cells/mL) for 0, 15,30,45, 60, 75 and 90 min at 37 °C (5 % CO2, 95 % relative humidity). The reaction was terminated with the addition of ice-cold acetonitrile containing system suitability standard at designated time points. […] The experiment was carried out in duplicate. Diltiazem, 7-ethoxy coumarin, propranolol, and midazolam were used as reference standards.

[5] = system: Pf 3D7 3-oxadiazole quinolone resistant strain with a V259L mutation in the Qo site of cyt b; experiment: Cyt b resistant asexual stage assay, 3D7 cyt b(V259L); assay type: cell-based, Plasmodium falciparum; conditions: for EC50: Plasmodium falciparum, 3D7, 72 h, read-out: Pf cyt b mutant strains EC50 (SD) 3D7 cyt b(V259L)
Procedure: (§3) To determine whether the cyclopropyl carboxamide series specifically targets the Qo site of cyt b, representative analogs W466 (1), W499 (2), and the focal compound here-on referred to as WJM280 (108) were evaluated against drug-resistant parasite strains with mutations in the Qo or Qi site of cyt b. […] These mutations are mapped to a model of cyt b in Fig. 3.
as §2

[6] = system: Pf Dd2 strain with an I22L mutation in the Qi site cyt b; experiment: Cyt b resistant asexual stage assay, Dd2 cyt b(I22L); assay type: cell-based; conditions: Plasmodium falciparum, DD2, 72 h, read-out: Pf cyt b mutant strains EC50 (SD) Dd2 cyt b(I22L)
Procedure: as §3, §2

| Compound | EC50 (Pf SB1-A6 strain) [nM] | EC50 [1] [nM] | EC50 ([2]; 3D7 / DSM 265, parent 3D7 for resistant populations, LDH assay, 3 experiments (SYBR-green for DSM265)) [nM] | microsomal CLint at 1 h, 1 µM [3] [µL/min/mg] | logD at 2 h [4] | hepatocyte CLint at 1 μM (Rat hepatocyte stability) [µL/min/1e6 cells] | fold reduction in activity against cyt b V259L Qo site mutant compared to the Dd2 parent strain [5] [fold] | EC50 [5] [nM] | EC50 [6] [nM] | EC50 ([2]; 3D7, 72 h, LDH activity of P. falciparum 3D7 parasites over 72 h, means and SDs, three or more experiments) [nM] |
| --- | --- | --- | --- | --- | --- | --- | --- | --- | --- | --- |
| O=C(NC1CC1)c1ccc(CN(Cc2ccc(Cl)cc2Cl)C2CC2)cc1 [W499 (2)] | > 10000 | > 10000 | 170 | 177 | 4.1 | > 92 | 1.5 | 165 | 49 |  |
| CCCN(Cc1ccc(C(=O)NC2CC2)cc1)Cc1ccc(C(F)(F)F)cc1 [WJM280 (108), N-Cyclopropyl-4-((propyl(4-(trifluoromethyl)benzyl)amino)methyl)benzamide] | > 10000 | > 10000 |  | 62 | 5.2 | > 92 | 2 | 23 | 2 | 40 |
